The target of data set [1] is von Hippel-Lindau disease tumor suppressor/Son of sevenless homolog 2 (Homo sapiens) (UniProt P40337+Q07890). The experiment in a line: Protac activity at VHL/SOS2 in human NCI-H358 cells assessed as SOS2 protein degradation at 9.8 to 2500 nM incubated for 24 hr by Western blot analysis. The data set is classed as cell-based. The conditions noted are these: dose 9.8-2500 nM, DDE = dose-dependent effect.

Data set [2] can be described thus: Acute toxicity in BALB/c mouse assessed as change in body weight at 20 mg/kg, ip once daily for 7 days. The data set is classed as organism-based. Conditions: in vivo, 168 h, time 7 day.
Data set [3] is described as follows: Effect of compound on human ASPC1 cells harboring KRAS G12D mutant assessed as inhibition of ERK phosphorylation incubated for 24 hr by Western blot analysis. The data set is classed as functional, cell-based. Conditions: ASPC1, 24 h. On the technique in general: Immunoblotting shows a protein as a band on a membrane.
For data set [4], the system named is NCI-H358. The data set can be described thus: Effect of compound on human NCI-H358 cells stimulated with EGF assessed as decrease in KRAS-GTP level incubated for 24 hr by RAS-G-LISA assay. The data set is classed as functional, cell-based.
Data set [5] concerns the target von Hippel-Lindau disease tumor suppressor/Son of sevenless homolog 1/GTPase KRas (Homo sapiens) (UniProt Q07889+P01116+P40337). The experiment in a line: Protac activity at SOS1/KRAS E3 ligase in human NCI-H358 cells assessed as KRAS protein level at 2.5 uM measured after 24 hr by […] analysis. The data set is classed as cell-based.
Data set [6] is described as follows: Observed MRT (infinity) in BALB/c mouse at 10 mg/kg, ip measured after 24 hrs by LC-MS/MS analysis. The data set is classed as ADME, organism-based. Conditions: in vivo.
Data set [7] deals with NCI-H358. The data set can be described thus: Antiproliferative activity against human NCI-H358 cells harboring KRAS G12C mutant assessed as growth inhibition incubated for 7 days by CellTiter-Glo 3D cell viability assay. In kind it is functional, cell-based. The conditions noted are these: NCI-H358, 168 h. (In general: Cellular ATP, detected with luciferase, serves as a proxy for viable cell number.)

Data set [8] deals with NCI-H358. The experiment in a line: Antitumor activity against human NCI-H358 cells xenografted in BALB/c nude mouse assessed as tumor growth inhibition at 20 mg/kg/day, ip incubated for 21 days. In kind it is functional. Conditions: NCI-H358, 504 h, time 21 day, read-out: TGI.
The nature of data set [9]: Binding affinity to SOS1/VCB E3 ligase (unknown origin) assessed as ternary dissociation constant by surface plasmon resonance analysis. Further details: species or system Homo sapiens. For orientation: SPR reads the build-up and loss of mass on a sensor chip optically.
Data set [10] can be described thus: Toxicity in BALB/c nude mouse xenografted with human NCI-H358 cells assessed as effect on body weight at 20 to 50 mg/kg, IT twice weekly for 5 weeks. In kind it is organism-based. The conditions noted are these: in vivo, other, 840 h, dose 20-50 mg/kg.
Data set [11] in a line: Acute toxicity in BALB/c mouse assessed as change in body weight at 10 mg/kg, ip once daily for 7 days. The data set is classed as organism-based. The conditions noted are these: in vivo, 168 h, time 7 day.
In another data set the test system is Mus musculus. The experiment in a line: In vivo degradation of SOS1 in BALB/c nude mouse xenografted with human NCI-H358 cells at 20 to 50 mg/kg, IT incubated for 21 days by immunohistochemistry analysis. The conditions noted are these: dose 20-50 mg/kg, time 21.0 day. In kind it is functional, organism-based.
In data set [12] the target is von Hippel-Lindau disease tumor suppressor/Son of sevenless homolog 1 (Homo sapiens, UniProt Q07889+P40337). The experiment in a line: Protac activity at VHL/SOS1 in human ASPC1 cells assessed as SOS1 protein degradation at 1 uM incubated measured after 16 hr by western blot analysis. The data set is classed as cell-based.
In data set [13] the target is von Hippel-Lindau disease tumor suppressor/Son of sevenless homolog 1 (Homo sapiens, UniProt Q07889+P40337, G12R). The data set can be described thus: Protac activity at VHL/SOS1 in human CAL-62 cells harboring KRAS G12R mutant assessed as SOS1 protein degradation incubated for 24 hr by Western blot analysis. In kind it is cell-based.

SMILES strings stand for the structures. pIC50, pKd: −log10 of the molar value. Active and inactive are the calls of the source. The rule behind the calls is not given here.

By pIC50 is commonly meant the negative decadic logarithm of the IC50, by convention in mol/L. In general, MRT inf refers to a mean duration of stay, worked out from the concentration-time curve. The term pKd denotes −log10 of the Kd, conventionally taken in molar units. One may read the DC50 as the midpoint of the concentration-degradation curve.

von Hippel-Lindau disease tumor suppressor/Son of sevenless homolog 1/GTPase KRas (Homo sapiens), sequence (P01116 whole entry, looked up): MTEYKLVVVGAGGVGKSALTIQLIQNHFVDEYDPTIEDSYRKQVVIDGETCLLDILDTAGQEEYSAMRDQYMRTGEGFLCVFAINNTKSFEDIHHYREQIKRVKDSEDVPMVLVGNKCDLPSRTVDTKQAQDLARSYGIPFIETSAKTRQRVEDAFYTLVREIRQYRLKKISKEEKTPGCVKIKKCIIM
von Hippel-Lindau disease tumor suppressor/Son of sevenless homolog 1/GTPase KRas (Homo sapiens), sequence (P40337 whole entry, looked up): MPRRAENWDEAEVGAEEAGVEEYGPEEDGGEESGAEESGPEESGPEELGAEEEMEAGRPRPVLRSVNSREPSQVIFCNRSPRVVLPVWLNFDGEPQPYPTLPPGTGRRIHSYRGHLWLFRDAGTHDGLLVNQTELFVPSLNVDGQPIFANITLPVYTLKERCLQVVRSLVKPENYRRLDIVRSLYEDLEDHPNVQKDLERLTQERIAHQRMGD
von Hippel-Lindau disease tumor suppressor/Son of sevenless homolog 1/GTPase KRas (Homo sapiens), sequence (Q07889 whole entry, looked up): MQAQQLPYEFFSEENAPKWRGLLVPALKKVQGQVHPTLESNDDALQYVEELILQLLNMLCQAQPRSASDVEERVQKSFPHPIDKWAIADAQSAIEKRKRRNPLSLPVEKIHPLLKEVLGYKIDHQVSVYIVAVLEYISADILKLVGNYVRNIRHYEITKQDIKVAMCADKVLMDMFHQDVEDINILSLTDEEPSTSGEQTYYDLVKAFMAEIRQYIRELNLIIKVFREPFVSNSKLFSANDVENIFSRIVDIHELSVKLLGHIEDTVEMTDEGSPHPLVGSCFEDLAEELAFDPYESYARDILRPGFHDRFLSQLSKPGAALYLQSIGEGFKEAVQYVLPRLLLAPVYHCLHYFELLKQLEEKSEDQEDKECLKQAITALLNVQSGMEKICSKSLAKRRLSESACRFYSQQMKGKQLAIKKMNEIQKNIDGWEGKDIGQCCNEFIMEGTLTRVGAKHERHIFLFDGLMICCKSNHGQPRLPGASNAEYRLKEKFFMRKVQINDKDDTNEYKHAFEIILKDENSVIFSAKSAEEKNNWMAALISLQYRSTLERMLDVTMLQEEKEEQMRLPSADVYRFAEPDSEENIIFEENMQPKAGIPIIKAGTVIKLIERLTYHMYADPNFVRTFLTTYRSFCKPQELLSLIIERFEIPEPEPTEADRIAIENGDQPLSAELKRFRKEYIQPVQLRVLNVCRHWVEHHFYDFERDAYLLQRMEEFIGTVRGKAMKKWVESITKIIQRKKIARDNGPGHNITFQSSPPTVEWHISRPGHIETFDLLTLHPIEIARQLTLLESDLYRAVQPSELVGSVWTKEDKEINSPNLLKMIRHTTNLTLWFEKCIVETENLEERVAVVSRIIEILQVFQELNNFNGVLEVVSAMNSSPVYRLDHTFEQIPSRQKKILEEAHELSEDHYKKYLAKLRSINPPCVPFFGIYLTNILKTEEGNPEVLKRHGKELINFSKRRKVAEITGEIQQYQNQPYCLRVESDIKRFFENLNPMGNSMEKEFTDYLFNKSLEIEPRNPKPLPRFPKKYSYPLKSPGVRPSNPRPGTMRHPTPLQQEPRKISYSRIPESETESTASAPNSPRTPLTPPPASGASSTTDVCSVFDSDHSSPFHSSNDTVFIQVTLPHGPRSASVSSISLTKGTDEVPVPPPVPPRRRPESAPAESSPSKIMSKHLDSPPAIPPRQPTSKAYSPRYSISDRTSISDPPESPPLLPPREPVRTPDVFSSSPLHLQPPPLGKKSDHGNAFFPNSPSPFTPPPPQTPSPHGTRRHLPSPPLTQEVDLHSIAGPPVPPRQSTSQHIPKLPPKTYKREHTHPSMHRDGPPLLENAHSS
von Hippel-Lindau disease tumor suppressor/Son of sevenless homolog 1 (Homo sapiens, UniProt Q07889+P40337, G12R), sequence (P40337 whole entry, looked up, stated change not applied): as the sequence (P40337 whole entry, looked up) above
von Hippel-Lindau disease tumor suppressor/Son of sevenless homolog 1 (Homo sapiens, UniProt Q07889+P40337, G12R), sequence (Q07889 whole entry, looked up, stated change not applied): as the sequence (Q07889 whole entry, looked up) above
von Hippel-Lindau disease tumor suppressor/Son of sevenless homolog 2 (Homo sapiens), sequence (P40337 whole entry, looked up): as the sequence (P40337 whole entry, looked up) above
von Hippel-Lindau disease tumor suppressor/Son of sevenless homolog 2 (Homo sapiens), sequence (Q07890 whole entry, looked up): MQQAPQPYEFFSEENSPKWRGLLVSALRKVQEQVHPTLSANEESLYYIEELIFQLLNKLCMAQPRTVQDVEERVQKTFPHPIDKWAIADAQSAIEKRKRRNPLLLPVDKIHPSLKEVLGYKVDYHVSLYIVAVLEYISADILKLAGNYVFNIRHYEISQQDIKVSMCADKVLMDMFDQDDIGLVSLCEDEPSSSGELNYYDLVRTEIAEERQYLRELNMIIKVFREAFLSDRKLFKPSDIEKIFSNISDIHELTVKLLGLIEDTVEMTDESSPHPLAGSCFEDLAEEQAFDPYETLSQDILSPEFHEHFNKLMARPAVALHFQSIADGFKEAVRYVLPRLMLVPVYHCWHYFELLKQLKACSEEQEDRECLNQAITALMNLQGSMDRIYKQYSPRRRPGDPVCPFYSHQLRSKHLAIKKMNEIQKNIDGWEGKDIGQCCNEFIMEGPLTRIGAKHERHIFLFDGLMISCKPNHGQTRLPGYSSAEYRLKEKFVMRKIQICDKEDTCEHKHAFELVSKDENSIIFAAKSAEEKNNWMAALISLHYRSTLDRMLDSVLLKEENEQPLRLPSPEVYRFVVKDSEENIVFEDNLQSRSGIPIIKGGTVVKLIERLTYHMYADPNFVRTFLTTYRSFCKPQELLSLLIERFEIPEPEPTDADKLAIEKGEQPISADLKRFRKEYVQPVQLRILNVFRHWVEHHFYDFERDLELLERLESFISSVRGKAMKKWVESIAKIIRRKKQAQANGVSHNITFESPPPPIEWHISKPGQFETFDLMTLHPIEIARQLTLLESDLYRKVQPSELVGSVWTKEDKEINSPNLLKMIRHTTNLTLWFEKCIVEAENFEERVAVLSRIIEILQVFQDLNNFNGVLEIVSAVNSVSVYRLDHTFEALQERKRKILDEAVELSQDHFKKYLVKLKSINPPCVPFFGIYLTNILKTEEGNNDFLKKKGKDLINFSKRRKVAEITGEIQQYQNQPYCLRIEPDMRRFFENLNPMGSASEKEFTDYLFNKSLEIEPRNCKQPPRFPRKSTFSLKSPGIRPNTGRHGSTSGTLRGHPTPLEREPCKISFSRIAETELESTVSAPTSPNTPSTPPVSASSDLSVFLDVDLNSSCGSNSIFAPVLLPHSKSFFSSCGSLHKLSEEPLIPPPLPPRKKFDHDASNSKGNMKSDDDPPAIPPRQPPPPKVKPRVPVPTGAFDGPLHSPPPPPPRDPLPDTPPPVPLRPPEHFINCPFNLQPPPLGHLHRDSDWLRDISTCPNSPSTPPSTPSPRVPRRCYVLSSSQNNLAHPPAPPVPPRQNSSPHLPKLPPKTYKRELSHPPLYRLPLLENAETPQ

With `Cc1cc(Cn2c(N3CC4(CNC4)C3)nc3c(N4CCN(CCCCCCCCC(=O)N[C@H](C(=O)N5C[C@H](O)C[C@H]5C(=O)N[C@@H](C)c5ccc(-c6scnc6C)cc5)C(C)(C)C)CC4)cc(Cl)cc32)cc(C)c1F`, the Activity entry is “Dde” in [1], “Non-Toxic” in [2], “Non-Toxic” in [10] and “Non-Toxic” in [11]. Moreover, the negative logarithm of the IC50 (pIC50) is 7.14 in data set [3] and 6.28 in the data set on NCI-H358 [7]. The result (in the data set on NCI-H358 [4]; in data set [5]; in the data set with Mus musculus; in data set [12]) was Active. Moreover, the MRT inf in data set [6] was found to be 10.2 h. Further, in the data set on NCI-H358 [8], the inhibition in vivo at 20 mg/kg/day worked out at 86.1%. In addition, in data set [9], the pKd was 8.43. Moreover, the DC50 in [13] is 126 nM.
